# Measured values: ChEMBL document CHEMBL1150449, “Conversion of acyclic nonpeptide CCK antagonists into CCK agonists” (Bioorg Med Chem Lett, 1997)
# Tests used:
# [1] = biological target: T1, Cholecystokinin receptor type A (Homo sapiens, UniProt P32238); assay: Tested for the 50% displacement of [125I]CCK-8 from membrane preparation isolated from CHO-K1 cells stably transfected with the cDNA of human Cholecystokinin type A receptor; type: cell membranes
# T1 sequence (P32238 whole entry): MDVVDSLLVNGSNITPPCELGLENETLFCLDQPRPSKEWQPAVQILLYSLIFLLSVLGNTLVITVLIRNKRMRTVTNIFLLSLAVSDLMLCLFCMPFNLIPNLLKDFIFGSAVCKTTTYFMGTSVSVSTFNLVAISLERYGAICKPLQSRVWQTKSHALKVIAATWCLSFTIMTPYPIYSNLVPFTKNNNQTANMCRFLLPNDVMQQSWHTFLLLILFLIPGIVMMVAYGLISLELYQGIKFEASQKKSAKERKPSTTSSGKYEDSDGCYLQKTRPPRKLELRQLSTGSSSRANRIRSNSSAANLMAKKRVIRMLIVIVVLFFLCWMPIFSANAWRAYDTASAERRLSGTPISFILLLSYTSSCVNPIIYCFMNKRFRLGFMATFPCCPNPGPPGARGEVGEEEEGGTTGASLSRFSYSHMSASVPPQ
# Mus musculus = assay: Tested in vivo for the relative efficacy (relative to CCK-8 (1 nmol/kg)) for mouse gallbladder emptying after ip administration (0.1 umol/kg); type: functional
# [2] = biological target: Cholecystokinin receptor type A (Cavia porcellus); assay: Concentration of compound that induced 50% of the maximal contraction in guinea pig gallbladder tissue when tested in vitro
# [3] = biological target: T2, Gastrin/cholecystokinin type B receptor (Homo sapiens, UniProt P32239); assay: Tested for 50% displacement of [125I]CCK-8 from membrane preparation isolated from CHO-K1 cells stably transfected with the cDNA of human Cholecystokinin type B receptor; type: cell membranes
# T2 sequence (P32239 whole entry): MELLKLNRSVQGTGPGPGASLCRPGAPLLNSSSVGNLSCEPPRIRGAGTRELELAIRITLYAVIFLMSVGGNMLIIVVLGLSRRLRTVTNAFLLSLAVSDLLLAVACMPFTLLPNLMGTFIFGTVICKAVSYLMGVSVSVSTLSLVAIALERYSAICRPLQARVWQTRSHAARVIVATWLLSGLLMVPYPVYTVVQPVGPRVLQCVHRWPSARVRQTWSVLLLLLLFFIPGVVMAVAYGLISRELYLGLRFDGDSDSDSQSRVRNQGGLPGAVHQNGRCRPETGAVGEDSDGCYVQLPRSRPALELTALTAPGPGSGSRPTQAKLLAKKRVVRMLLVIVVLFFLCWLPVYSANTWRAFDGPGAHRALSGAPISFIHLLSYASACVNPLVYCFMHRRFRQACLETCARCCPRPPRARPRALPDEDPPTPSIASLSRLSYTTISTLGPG
smiles,measurement,setting,value
CC(C)N(C(=O)CN(C(=O)[C@@H](CCC(=O)O)NC(=O)Nc1ccccc1)c1ccccc1)c1ccccc1,IC50,[1],1.58 µM
same,Relative efficacy,Mus musculus,0.6
same,EC50,[2],0.21 µM
same,IC50,[3],10 µM
COc1ccc(N(C(=O)CN(C(=O)[C@H](CCC(=O)O)NC(=O)Nc2ccccc2)c2ccccc2)C(C)C)cc1,EC50,[2],5.6 µM
COc1ccc(N(C(=O)CN(C(=O)[C@@H](CCC(=O)O)NC(=O)Nc2ccccc2)c2ccccc2)C(C)C)cc1,IC50,[1],0.251 µM
same,Relative efficacy,Mus musculus,0.8
same,EC50,[2],0.11 µM
same,IC50,[3],31.6 µM
CC(C)N(C(=O)CN(C(=O)CNC(=O)Nc1ccccc1)c1ccccc1)c1ccccc1,IC50,[1],3.16 µM
same,Relative efficacy,Mus musculus,<0.2
same,EC50,[2],0.3 µM
same,IC50,[3],1.58 µM
CCCCCN(CC(=O)N(c1ccccc1)C(C)C)C(=O)[C@@H](CCC(=O)O)NC(=O)Nc1ccccc1,Relative efficacy,Mus musculus,0.3
